Results published in ChEMBL document CHEMBL5055664, “A Novel Anticancer Stem Cell Compound Derived from Pleuromutilin Induced Necroptosis of Melanoma Cells” (J Med Chem, 2021).
Converted amounts (≈) assume the structure as drawn. Each block holds one compound with its values, some of them ahead of it. The source made the active and inactive calls. No cut-off for these calls is given here.

Key:
B16-F10 [1] = assay: Cytotoxicity against mouse B16-F10 cells assessed as inhibition of cell growth measured after 72 hrs by MTT assay; assay type: functional, cell-based; conditions: B16-F10, 72 h
A-375 [2] = assay: Cytotoxicity against human A-375 cells assessed as inhibition of cell growth measured after 72 hrs by MTT assay; assay type: functional, cell-based; conditions: A-375, 72 h
4T1 = assay: Cytotoxicity against mouse 4T1 cells assessed as inhibition of cell growth measured after 72 hrs by MTT assay; assay type: functional, cell-based; conditions: 4T1, 72 h
Kasumi 1 = assay: cells; conditions: Homo sapiens, Kasumi 1, 72 h
CT26 = assay: cells; conditions: Mus musculus, CT26, 72 h
HCT-116 = assay: cells; conditions: Homo sapiens, HCT-116, 72 h
B16-F10 [3] = assay: Induction of morphological changes in mouse B16-F10 cells assessed as formation of apoptotic bodies at 0.5 to […] measured after 48 hrs by AnnexinV-FITC/propidium iodide staining based flow cytometry; assay type: functional, cell-based; conditions: dose 0.5-2.5 µM
B16-F10 [4] = assay: Induction of secondary necrosis in mouse B16-F10 cells at 0.5 to […] measured after 48 hrs by AnnexinV-FITC/propidium iodide staining based flow cytometry; assay type: functional, cell-based; conditions: dose 0.5-2.5 µM
Staphylococcus aureus = assay: Antimicrobial activity against Staphylococcus aureus assessed as bacterial growth inhibition; assay type: functional
Escherichia coli = assay: Antimicrobial activity against Escherichia coli assessed as bacterial growth inhibition; assay type: functional
Bacillus subtilis = assay: Antimicrobial activity against Bacillus subtilis assessed as bacterial growth inhibition; assay type: functional
B16-F10 [5] = assay: Anticancer activity against mouse B16-F10 cancer stem cells assessed as CD44+CD24+ marker cells at 1.25 uM measured after 30 hrs by FITC/APC staining based flow cytometry (reference value: […]); assay type: functional
B16-F10 [6] = assay: Anticancer activity against mouse B16-F10 cancer stem cells assessed as CD44+CD24+ marker cells at […] measured after 30 hrs by FITC/APC staining based flow cytometry (reference value: […]); assay type: functional; conditions: dose 2.5 µM
B16-F10 [7] = assay: Anticancer activity against mouse B16-F10 cancer stem cells assessed as CD44+CD24+ marker cells at 5 uM measured after 30 hrs by FITC/APC staining based flow cytometry (reference value: […]); assay type: functional
A-375 [8] = assay: Anticancer activity against human A-375 cancer stem cells assessed as CD44+CD133+ marker cells at 1.25 uM measured after 30 hrs by FITC/APC staining based flow cytometry (reference value: […]); assay type: functional
A-375 [9] = assay: Anticancer activity against human A-375 cancer stem cells assessed as CD44+CD133+ marker cells at […] measured after 30 hrs by FITC/APC staining based flow cytometry (reference value: […]); assay type: functional; conditions: dose 2.5 µM
A-375 [10] = assay: Anticancer activity against human A-375 cancer stem cells assessed as CD44+CD133+ marker cells at 5 uM measured after 30 hrs by FITC/APC staining based flow cytometry (reference value: […]); assay type: functional
[11] = Cmax in Sprague-Dawley rat at 50 mg/kg, po by LC-MS/MS analysis; assay type: ADME, organism-based; set-up: dose 50 mg/kg, route po; conditions: in vivo
[12] = Tmax in Sprague-Dawley rat at 50 mg/kg, po by LC-MS/MS analysis; assay type: ADME, organism-based; conditions: in vivo
[13] = Half life in Sprague-Dawley rat at 50 mg/kg, po by LC-MS/MS analysis; assay type: ADME, organism-based; conditions: in vivo
[14] = MRT (0 to t) in Sprague-Dawley rat at 50 mg/kg, po by LC-MS/MS analysis; assay type: ADME, organism-based; conditions: in vivo
[15] = Oral bioavailability in Sprague-Dawley rat at 50 mg/kg by LC-MS/MS analysis; assay type: ADME, organism-based; conditions: in vivo
[16] = Cmax in Sprague-Dawley rat at 20 mg/kg, iv by LC-MS/MS analysis; assay type: ADME, organism-based; set-up: dose 20 mg/kg, route iv; conditions: in vivo
[17] = Tmax in Sprague-Dawley rat at 20 mg/kg, iv by LC-MS/MS analysis; assay type: ADME, organism-based; conditions: in vivo
[18] = Half life in Sprague-Dawley rat at 20 mg/kg, iv by LC-MS/MS analysis; assay type: ADME, organism-based; conditions: in vivo
[19] = MRT (0 to t) in Sprague-Dawley rat at 20 mg/kg, iv by LC-MS/MS analysis; assay type: ADME, organism-based; conditions: in vivo

Structure (SMILES): COc1cccc2c1C(=O)c1c(O)c3c(c(O)c1C2=O)C[C@@](O)(C(=O)CO)C[C@@H]3O[C@H]1C[C@H](N)[C@H](O)[C@H](C)O1
- Activity (B16-F10 [3]): Active
- Activity (B16-F10 [4]): Active

Structure (SMILES): C=C[C@]1(C)C[C@@H](OC(=O)CO)[C@]2(C)[C@H](C)CC[C@]3(CCC(=O)[C@H]32)[C@@H](C)[C@@H]1O [PLEUROMULIN]
- IC50 (B16-F10 [1]): > 100 µM
- IC50 (A-375 [2]): > 100 µM
- IC50 (4T1): > 100 µM
- MIC (Staphylococcus aureus): 10 µg/mL (≈ 26.4 µM)
- MIC (Escherichia coli): 50 µg/mL (≈ 132 µM)
- MIC (Bacillus subtilis): 100 µg/mL (≈ 264 µM)
- IC50 (Kasumi 1): > 100 µM
- IC50 (CT26): > 100 µM
- IC50 (HCT-116): > 100 µM

Structure (SMILES): CC(=O)O[C@H]1C(=O)[C@@]2(C)[C@H]([C@H](OC(=O)c3ccccc3)[C@]3(O)C[C@H](OC(=O)[C@H](O)[C@@H](NC(=O)c4ccccc4)c4ccccc4)C(C)=C1C3(C)C)[C@]1(OC(C)=O)CO[C@@H]1C[C@@H]2O [PACLITAXEL]
- Activity (B16-F10 [5]): 11.3%
- Activity (B16-F10 [6]): 12.5%
- Activity (B16-F10 [7]): 24%
- Activity (A-375 [8]): 18.1%
- Activity (A-375 [9]): 19.3%
- Activity (A-375 [10]): 20%

Further lines, with some results ahead:

- IC50 (Kasumi 1): 2.45 µM
- IC50 (CT26): > 10 µM
- IC50 (HCT-116): 9.37 µM
Structure (SMILES): C=C[C@]1(C)C[C@@H](O)[C@]2(C)[C@H](C)CC[C@]3(CC(=C)C(=O)[C@H]32)[C@@H](C)[C@@H]1OC(=O)Cc1ccc(F)cc1
- IC50 (B16-F10 [1]): 2.31 µM
- IC50 (A-375 [2]): 5.73 µM
- IC50 (4T1): > 10 µM

- Cmax [11]: 3650 ng/mL
- Tmax [12]: 2.67 h
- half-life [13]: 6.54 h
- MRT last [14]: 4.71 h
- bioavailability [15]: 88%
- Cmax [16]: 3400 ng/mL
- Tmax [17]: 4.98 min
- half-life [18]: 1.33 h
- MRT last [19]: 2.91 h
Structure (SMILES): C=C[C@]1(C)C[C@@H](OC(=O)c2ccc(C(F)(F)F)cn2)[C@]2(C)[C@H](C)CC[C@]3(CC(=C)C(=O)[C@H]32)[C@@H](C)[C@@H]1OC(=O)c1ccc(C(F)(F)F)cn1
